Experimental data published in patent US9067943B2, “[1,2,3]triazolo[4,5-D]pyrimidine derivatives” (priority 2011, dated 2015).

What was measured:
human CB1 receptors = molecular target: T1, human CB1 receptors (Homo sapiens, UniProt P21554); test: cAMP assay; format: cell-based
T1 construct: expressed in transfected cells; host or cells: CHO cells
Protocol: (§1) CHO cells expressing human CB1 or CB2 receptors are seeded 17-24 hours prior to the experiment 50.000 cells per well in a black 96 well plate with flat clear bottom (Corning Costar #3904) in DMEM (Invitrogen No. 31331), 1×HT supplement, with 10% fetal calf serum and incubated at 5% CO2 and 37° C. in a humidified incubator. The growth medium was exchanged with Krebs Ringer Bicarbonate buffer with 1 mM IBMX and incubated at 30° C. for 30 min. Compounds were added to a final assay volume of 100 μl and incubated for 30 min at 30° C. Using the cAMP-Nano-TRF detection kit the assay (Roche Diagnostics) was stopped by the addition of 50 μl lysis reagent (Tris, NaCl, 1.5% Triton X100, 2.5% NP40, 10% NaN3) and 50 μl detection solutions (20 μM mAb Alexa700-cAMP 1:1, and 48 μM Ruthenium-2-AHA-cAMP) and shaken for 2 h at room temperature. The time-resolved energy transfer is measured by a TRF reader (Evotec Technologies GmbH), equipped with a ND:YAG laser as excitation source. The plate is measured twice with the excitation at 355 nm and at the emission with a delay of 100 ns and a gate of 100 ns, total exposure time 10 s at 730 (bandwidth 30 nm) or 645 nm (bandwidth 75 nm), respectively. The FRET signal is calculated as follows: FRET=T730-Alexa730-P(T645-B645) with P=Ru730-B730/Ru645-B645, where T730 is the test well measured at 730 nM, T645 is the test well measured at 645 nm, B730 and B645 are the buffer controls at 730 nm and 645 nm, respectively. cAMP content is determined from the function of a standard curve spanning from 10 μM to 0.1 nM cAMP.
(§2) EC50 values were determined using Activity Base analysis (ID Business Solution, Limited). The EC50 values for a wide range of cannabinoid agonists generated from this assay were in agreement with the values published in the scientific literature.

human CB2 receptors = molecular target: T2, human CB2 receptors (Homo sapiens, UniProt P34972); test: cAMP assay; format: cell-based
T2 construct: expressed in transfected cells; host or cells: CHO cells
T2 sequence (P34972 whole entry): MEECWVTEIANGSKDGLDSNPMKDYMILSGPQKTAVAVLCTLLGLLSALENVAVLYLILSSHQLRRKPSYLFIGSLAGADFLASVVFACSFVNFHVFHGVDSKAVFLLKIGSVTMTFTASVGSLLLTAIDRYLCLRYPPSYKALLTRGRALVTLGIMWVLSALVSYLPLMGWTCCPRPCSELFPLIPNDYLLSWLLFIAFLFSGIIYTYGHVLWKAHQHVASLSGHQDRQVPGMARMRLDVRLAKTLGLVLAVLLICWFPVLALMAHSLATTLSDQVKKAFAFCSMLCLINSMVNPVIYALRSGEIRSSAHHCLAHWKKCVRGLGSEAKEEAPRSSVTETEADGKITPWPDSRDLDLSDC
Protocol: as §1, §2

T1 sequence (P21554 whole entry): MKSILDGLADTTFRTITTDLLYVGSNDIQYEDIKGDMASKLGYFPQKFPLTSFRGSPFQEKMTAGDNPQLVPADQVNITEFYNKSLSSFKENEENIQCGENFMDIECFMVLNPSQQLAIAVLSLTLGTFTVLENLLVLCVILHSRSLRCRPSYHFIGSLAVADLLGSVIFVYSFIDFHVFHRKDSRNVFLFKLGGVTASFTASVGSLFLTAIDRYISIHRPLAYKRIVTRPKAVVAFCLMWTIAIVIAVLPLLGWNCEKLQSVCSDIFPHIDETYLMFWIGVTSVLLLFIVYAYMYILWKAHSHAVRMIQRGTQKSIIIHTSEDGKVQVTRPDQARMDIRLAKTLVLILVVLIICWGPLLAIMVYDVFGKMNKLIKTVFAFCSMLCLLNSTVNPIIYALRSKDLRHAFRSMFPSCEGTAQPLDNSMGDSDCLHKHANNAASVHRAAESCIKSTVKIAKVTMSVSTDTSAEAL

| SMILES | EC50 (human CB1 receptors) [nM] | EC50 (human CB2 receptors) [nM] |
| --- | --- | --- |
| CC(C)(C)c1nc(N2CCC(F)(F)C2)c2nn(CCc3ccccc3)nc2n1 [Example 26, 5-tert-Butyl-7-(3,3-difluoro-pyrrolidin-1-yl)-2-phenethyl-2H-[1,2,3]triazolo[4,5-d]pyrimidine] | 386 | 1.3 |
| CC(C)(C)c1nc(N2CCC(F)(F)C2)c2nn(CC(=O)c3ccccc3)nc2n1 [Example 27, 2-[5-tert-Butyl-7-(3,3-difluoro-pyrrolidin-1-yl)-[1,2,3]triazolo[4,5-d]pyrimidin-2-yl]-1-phenyl-ethanone] | > 10000 | 0.9 |
| C[C@H](c1ccccc1Cl)n1nc2nc(C(C)(C)C)nc(N3CCC(F)(F)C3)c2n1 [Example 28, 5-tert-Butyl-2-[(R)-1-(2-chloro-phenyl)-ethyl]-7-(3,3-difluoro-pyrrolidin-1-yl)-2H-[1,2,3]triazolo[4,5-d]pyrimidine] | 134 | 0.2 |
| C[C@@H](c1ccccc1Cl)n1nc2nc(C(C)(C)C)nc(N3CCC(F)(F)C3)c2n1 [Example 29, 5-tert-Butyl-2-[(S)-1-(2-chloro-phenyl)-ethyl]-7-(3,3-difluoro-pyrrolidin-1-yl)-2H-[1,2,3]triazolo[4,5-d]pyrimidine] | 98 | 0.8 |
| CC(C)(C)c1nc(N2CCC(F)(F)C2)c2nn(Cc3c(Cl)ccc(F)c3Cl)nc2n1 [Example 33, 5-tert-Butyl-2-(2,6-dichloro-3-fluoro-benzyl)-7-(3,3-difluoro-pyrrolidin-1-yl)-2H-[1,2,3]triazolo[4,5-d]pyrimidine] | > 10000 | 1.2 |
| CC(C)(C)c1nc(N2CCC(F)(F)C2)c2nn(Cc3cccnc3Cl)nc2n1 [Example 34, 5-tert-Butyl-2-(2-chloro-pyridin-3-ylmethyl)-7-(3,3-difluoro-pyrrolidin-1-yl)-2H-[1,2,3]triazolo[4,5-d]pyrimidine] | > 10000 | 0.5 |
| CC(C)(C)c1nc(N2CCC(F)(F)C2)c2nn(Cc3cnccc3Cl)nc2n1 [Example 35, 5-tert-Butyl-2-(4-chloro-pyridin-3-ylmethyl)-7-(3,3-difluoro-pyrrolidin-1-yl)-2H-[1,2,3]triazolo[4,5-d]pyrimidine] | 642 | 0.5 |
| CC(C)(C)c1nc(N2CCC(F)(F)C2)c2nn(Cc3ncccc3Cl)nc2n1 [Example 36, 5-tert-Butyl-2-(3-chloro-pyridin-2-ylmethyl)-7-(3,3-difluoro-pyrrolidin-1-yl)-2H-[1,2,3]triazolo[4,5-d]pyrimidine] | 20.3 | 0.2 |
| CC(C)(C)c1nc(N2CCC(F)(F)C2)c2nn(Cc3cc(Cl)cnc3Cl)nc2n1 [Example 37, 5-tert-Butyl-2-(2,5-dichloro-pyridin-3-ylmethyl)-7-(3,3-difluoro-pyrrolidin-1-yl)-2H-[1,2,3]triazolo[4,5-d]pyrimidine] | > 10000 | 0.9 |
| CC(C)(C)c1nc(N2CCC(F)(F)C2)c2nn(Cc3nc(Cl)ccc3Cl)nc2n1 [Example 38, 5-tert-Butyl-2-(3,6-dichloro-pyridin-2-ylmethyl)-7-(3,3-difluoro-pyrrolidin-1-yl)-2H-[1,2,3]triazolo[4,5-d]pyrimidine] | 98.6 | 1.1 |
| Cc1nonc1Cn1nc2nc(C(C)(C)C)nc(N3CCC(F)(F)C3)c2n1 [Example 39, 5-tert-Butyl-7-(3,3-difluoro-pyrrolidin-1-yl)-2-(4-methyl-furazan-3-ylmethyl)-2H-[1,2,3]triazolo[4,5-d]pyrimidine] | > 10000 | 0.2 |
| Cc1noc(Cn2nc3nc(C(C)(C)C)nc(N4CCC(F)(F)C4)c3n2)n1 [Example 40, 5-tert-Butyl-7-(3,3-difluoro-pyrrolidin-1-yl)-2-(3-methyl-[1,2,4]oxadiazol-5-ylmethyl)-2H-[1,2,3]triazolo[4,5-d]pyrimidine] | > 10000 | 4.3 |
| CC(C)(C)c1nc(N2CCC(F)(F)C2)c2nn(CCc3ccccc3Cl)nc2n1 [Example 41, 5-tert-Butyl-2-[2-(2-chloro-phenyl)-ethyl]-7-(3,3-difluoro-pyrrolidin-1-yl)-2H-[1,2,3]triazolo[4,5-d]pyrimidine] | 498 | 0.5 |
| CC(C)(C)c1nc(N2CCC(F)(F)C2)c2nn(CCc3cccc(Cl)c3)nc2n1 [Example 42, 5-tert-Butyl-2-[2-(3-chloro-phenyl)-ethyl]-7-(3,3-difluoro-pyrrolidin-1-yl)-2H-[1,2,3]triazolo[4,5-d]pyrimidine] | > 10000 | 10.6 |
| CC(C)(C)c1nc(N2CCC(F)(F)C2)c2nn(CCc3ccc(Cl)cc3)nc2n1 [Example 43, 5-tert-Butyl-2-[2-(4-chloro-phenyl)-ethyl]-7-(3,3-difluoro-pyrrolidin-1-yl)-2H-[1,2,3]triazolo[4,5-d]pyrimidine] | > 10000 | 22 |
| CC(C)(C)c1nc(N2CCC(F)(F)C2)c2nn(Cc3c(Cl)ccnc3Cl)nc2n1 [Example 44, 5-tert-Butyl-2-(2,4-dichloro-pyridin-3-ylmethyl)-7-(3,3-difluoro-pyrrolidin-1-yl)-2H-[1,2,3]triazolo[4,5-d]pyrimidine] | 454 | 0.2 |
| CC(C)(C)c1nc(N2CCC(F)(F)C2)c2nn([C@@H]3CCOC3)nc2n1 [Example 45, 5-tert-Butyl-7-(3,3-difluoro-pyrrolidin-1-yl)-2-(R)-tetrahydro-furan-3-yl-2H-[1,2,3]triazolo[4,5-d]pyrimidine] | > 10000 | 7.6 |
| CC(C)(C)c1nc(N2CCC(F)(F)C2)c2nn([C@H]3CCOC3)nc2n1 [Example 46, 5-tert-Butyl-7-(3,3-difluoro-pyrrolidin-1-yl)-2-(S)-tetrahydro-furan-3-yl-2H-[1,2,3]triazolo[4,5-d]pyrimidine] | > 10000 | 2.8 |
| CC(C)(C)c1nc(N2CCC(F)(F)C2)c2nn(CC(=O)c3ccccc3Cl)nc2n1 [Example 47, 2-[5-tert-Butyl-7-(3,3-difluoro-pyrrolidin-1-yl)-[1,2,3]triazolo[4,5-d]pyrimidin-2-yl]-1-(2-chloro-phenyl)-ethanone] | > 10000 | 0.6 |
| CC(C)(C)c1nc(N2CCC(F)(F)C2)c2nn(Cc3c(F)ccc(Cl)c3Cl)nc2n1 [Example 48, 5-tert-Butyl-2-(2,3-dichloro-6-fluoro-benzyl)-7-(3,3-difluoro-pyrrolidin-1-yl)-2H-[1,2,3]triazolo[4,5-d]pyrimidine] | > 10000 | 5.5 |
| CC(C)(C)c1nc(N2CCC(F)(F)C2)c2nn(Cc3ccccc3S(C)(=O)=O)nc2n1 [Example 49, 5-tert-Butyl-7-(3,3-difluoro-pyrrolidin-1-yl)-2-(2-methanesulfonyl-benzyl)-2H-[1,2,3]triazolo[4,5-d]pyrimidine] | 150 | 0.4 |
| CC(C)(C)c1nc(N2CCC(F)(F)C2)c2nn(CCc3ccccn3)nc2n1 [Example 50, 5-tert-Butyl-7-(3,3-difluoro-pyrrolidin-1-yl)-2-(2-pyridin-2-yl-ethyl)-2H-[1,2,3]triazolo[4,5-d]pyrimidine] | > 10000 | 1.5 |
| CC1(Cn2nc3nc(C(C)(C)C)nc(N4CCC(F)(F)C4)c3n2)COC1 [Example 51, 5-tert-Butyl-7-(3,3-difluoro-pyrrolidin-1-yl)-2-(3-methyl-oxetan-3-ylmethyl)-2H-[1,2,3]triazolo[4,5-d]pyrimidine] | > 10000 | 0.9 |
| CC(C)(C)c1nc(N2CCC(F)(F)C2)c2nn(CC(=O)c3cccc(Cl)c3)nc2n1 [Example 52, 2-[5-tert-Butyl-7-(3,3-difluoro-pyrrolidin-1-yl)-[1,2,3]triazolo[4,5-d]pyrimidin-2-yl]-1-(3-chloro-phenyl)-ethanone] | > 10000 | 13 |
| CC(C)(C)c1nc(N2CCC(F)(F)C2)c2nn(CC(=O)c3ccc(Cl)cc3)nc2n1 [Example 53, 2-[5-tert-Butyl-7-(3,3-difluoro-pyrrolidin-1-yl)-[1,2,3]triazolo[4,5-d]pyrimidin-2-yl]-1-(4-chloro-phenyl)-ethanone] | > 10000 | 7.2 |
| CC(C)(C)c1nc(N2CCC(F)(F)C2)c2nn(CC(=O)c3cccnc3)nc2n1 [Example 54, 2-[5-tert-Butyl-7-(3,3-difluoro-pyrrolidin-1-yl)-[1,2,3]triazolo[4,5-d]pyrimidin-2-yl]-1-pyridin-3-yl-ethanone] | > 10000 | 6.5 |
| CC(C)(C)c1nc(N2CCC(F)(F)C2)c2nn(Cc3c(Cl)ccc(Cl)c3Cl)nc2n1 [Example 55, 5-tert-Butyl-7-(3,3-difluoro-pyrrolidin-1-yl)-2-(2,3,6-trichloro-benzyl)-2H-[1,2,3]triazolo[4,5-d]pyrimidine] | > 10000 | 8.7 |
